# According to US7199153B2, “Pharmaceutical composition comprising paracetamol and niflumic acid” (SmithKline Beechman, p.l.c., priority 2000, dated 2007):
# System: P-phenyl-quinone induced abdominal constriction in DBA/2 mice
# Assay: P-phenyl-quinone induced mouse abdominal constriction (MAC) assay
# Assay type: in vivo
# Conditions: paracetamol alone at 50 mg/kg and 150 mg/kg, po
# Description: The method is based on that described by Siegmund, Cadmus and Lu in “A Method for Evaluating both Non-Narcotic and Narcotic Analgesics” Proc. Soc. Exp. Biol. Med., 95: 729–731 (1957)).
# DBA/2 mice were housed 20 per cage in a temperature and humidity controlled environment on a 12:12 hour light-dark cycle for five days with food and water ad libitum before testing. […] Ten animals were randomly allocated to each drug group and experimental designs were used that allowed complete randomisation of the testing of drug groups. Drugs were suspended in 1% methylcellulose and administered 10 ml/kg po, 60 mins pre-test. Abdominal constriction was induced by i.p. injection of 10 ml/kg P-phenyl-quinone (0.025% in 5% ethanol/water) and the total number of constrictions in a twenty minute period were measured. A constriction is defined as a flattening of the abdomen with extension of the hind limbs. Testing was blind with one experimenter observing five animals. All experiments were performed in accordance with the Animals (Scientific Procedures) Act 1986 and subject to local ethical committee approval.
# For each drug group, the mean % inhibition of constrictions was calculated ((1-(test/control))*100) and appropriate statistics were performed on log-transformed data to test significant differences from vehicle and, in the case of groups receiving drug combinations, each drug alone.
smiles,measurement,value
"CC(=O)Nc1ccc(O)cc1 [Paracetamol, N-acetyl-p-aminophenol]","% inhibition of constrictions, drug alone",small but significant effect
